# Calls of active or inactive are those of the source. The calls are words filed in the database; no cut-off is given here.
# Columns and labels:
# Pseudomonas aeruginosa [1] = test: Antibacterial activity against Pseudomonas aeruginosa PAO1 assessed as reduction in bacterial growth incubated for 20 hrs in presence of PMBN by microplate reader method; assay type: functional
# Enterococcus faecalis [2] = test: Antibacterial activity against Vanomycin-resistant Enterococcus faecalis NCTC 12201 assessed as reduction in bacterial growth incubated for 20 hrs by microplate reader method; assay type: functional
# Enterococcus faecalis [3] = test: Antibacterial activity against Vanomycin-sensitive Enterococcus faecalis NCTC 775 assessed as reduction in bacterial growth incubated for 20 hrs by microplate reader method; assay type: functional
# Escherichia coli = test: Antibacterial activity against Escherichia coli NCTC 12923 assessed as reduction in bacterial growth incubated for 20 hrs in presence of PMBN by microplate reader method; assay type: functional, organism-based
# Enterococcus faecium = test: Antibacterial activity against Vanomycin-resistant Enterococcus faecium NCTC 12204 assessed as reduction in bacterial growth incubated for 20 hrs by microplate reader method; assay type: functional
# Acinetobacter baumannii [4] = test: Antibacterial activity against Acinetobacter baumannii ATCC 17978 assessed as reduction in bacterial growth incubated for 20 hrs in presence of PMBN by microplate reader method; assay type: functional, organism-based
# Acinetobacter baumannii [5] = test: Antibacterial activity against Acinetobacter baumannii AYE assessed as reduction in bacterial growth incubated for 20 hrs in presence of PMBN by microplate reader method; assay type: functional, organism-based
# Staphylococcus aureus [6] = test: Antibacterial activity against Staphylococcus aureus ATCC 9144 assessed as reduction in bacterial growth incubated for 20 hrs by microplate reader method; assay type: functional
# Staphylococcus aureus [7] = test: Antibacterial activity against Staphylococcus aureus USA 300 assessed as reduction in bacterial growth incubated for 20 hrs by microplate reader method; assay type: functional
# Pseudomonas aeruginosa [8] = test: Antibacterial activity against Pseudomonas aeruginosa NCTC 13437 assessed as reduction in bacterial growth incubated for 20 hrs in presence of PMBN by microplate reader method; assay type: functional, organism-based
# Staphylococcus aureus [9] = test: Antibacterial activity against Staphylococcus aureus NCTC 13616 assessed as reduction in bacterial growth incubated for 20 hrs by microplate reader method; assay type: functional
# Staphylococcus aureus [10] = test: Antibacterial activity against Staphylococcus aureus 1199B assessed as reduction in bacterial growth incubated for 20 hrs by microplate reader method; assay type: functional
Compound,Activity (Pseudomonas aeruginosa [1]),MIC (Enterococcus faecalis [2]) [µg/mL],MIC (Enterococcus faecalis [3]) [µg/mL],Activity (Escherichia coli),MIC (Enterococcus faecium) [µg/mL],Activity (Acinetobacter baumannii [4]),Activity (Acinetobacter baumannii [5]),MIC (Staphylococcus aureus [6]) [µg/mL],MIC (Staphylococcus aureus [7]) [µg/mL],Activity (Pseudomonas aeruginosa [8]),MIC (Staphylococcus aureus [9]) [µg/mL],MIC (Staphylococcus aureus [10]) [µg/mL]
O=C(NC[C@H]1CN(c2ccc(N3CCOCC3)c(F)c2)C(=O)O1)c1cnco1,inactive,128,64,inactive,128,inactive,inactive,128,> 128,inactive,128,128
O=C(NC[C@H]1CN(c2ccc(N3CCOCC3)c(F)c2)C(=O)O1)C1CC1,–,8,8,–,8,–,–,8,8,–,8,8
NCC(=O)NC[C@H]1CN(c2ccc(N3CCOCC3)c(F)c2)C(=O)O1,–,64,64,–,32,–,–,> 128,> 128,–,> 128,> 128
O=C(NC[C@H]1CN(c2ccc(N3CCOCC3)c(F)c2)C(=O)O1)c1cc2ccccc2[nH]1,–,> 128,> 128,–,> 128,–,–,> 128,> 128,–,> 128,> 128
CCCC(=O)NC[C@H]1CN(c2ccc(N3CCOCC3)c(F)c2)C(=O)O1,–,8,8,–,8,–,–,8,16,–,8,8
Cn1cc([N+](=O)[O-])nc1C(=O)NC[C@H]1CN(c2ccc(N3CCOCC3)c(F)c2)C(=O)O1,–,> 128,> 128,–,> 128,–,–,> 128,> 128,–,> 128,> 128
CCC(=O)NC[C@H]1CN(c2ccc(N3CCOCC3)c(F)c2)C(=O)O1,–,4,4,–,4,–,–,8,8,–,4,4
Cc1nc(Br)sc1C(=O)NC[C@H]1CN(c2ccc(N3CCOCC3)c(F)c2)C(=O)O1,–,32,32,–,32,–,–,16,16,–,16,16
CN1CCC(C(=O)NC[C@H]2CN(c3ccc(N4CCOCC4)c(F)c3)C(=O)O2)C1 (some centres undefined),–,> 128,> 128,–,> 128,–,–,> 128,> 128,–,> 128,> 128
Cc1ccc(CC(=O)NC[C@H]2CN(c3ccc(N4CCOCC4)c(F)c3)C(=O)O2)cc1,–,16,64,–,16,–,–,128,128,–,64,64
O=C(NC[C@H]1CN(c2ccc(N3CCOCC3)c(F)c2)C(=O)O1)C1CC=CC1,–,8,16,–,16,–,–,16,16,–,16,8
O=C(NC[C@H]1CN(c2ccc(N3CCOCC3)c(F)c2)C(=O)O1)[C@@H]1CCNC1,inactive,> 128,> 128,inactive,> 128,inactive,inactive,> 128,> 128,inactive,> 128,> 128
NCCC(=O)NC[C@H]1CN(c2ccc(N3CCOCC3)c(F)c2)C(=O)O1,–,128,> 128,–,16,–,–,> 128,> 128,–,> 128,> 128
CC(C)C(=O)NC[C@H]1CN(c2ccc(N3CCOCC3)c(F)c2)C(=O)O1,–,8,16,–,8,–,–,16,16,–,16,8
O=C(NC[C@H]1CN(c2ccc(N3CCOCC3)c(F)c2)C(=O)O1)c1cc[nH]c1,–,32,32,–,16,–,–,32,32,–,64,64
O=C(NC[C@H]1CN(c2ccc(N3CCOCC3)c(F)c2)C(=O)O1)c1cnccn1,–,64,64,–,64,–,–,64,64,–,64,32
O=C(NC[C@H]1CN(c2ccc(N3CCOCC3)c(F)c2)C(=O)O1)c1cc2ncccc2o1,–,8,16,–,16,–,–,16,16,–,16,16
O=C(NC[C@H]1CN(c2ccc(N3CCOCC3)c(F)c2)C(=O)O1)c1ccsc1,–,8,16,–,8,–,–,16,16,–,16,8
NCCCC(=O)NC[C@H]1CN(c2ccc(N3CCOCC3)c(F)c2)C(=O)O1,–,> 128,> 128,–,64,–,–,> 128,> 128,–,> 128,> 128
CC(=O)NC[C@H]1CN(c2ccc(N3CCOCC3)c(F)c2)C(=O)O1 [LINEZOLID],–,–,–,–,2,–,–,–,–,–,–,–
O=C(NC[C@H]1CN(c2ccc(N3CCOCC3)c(F)c2)C(=O)O1)C1CCC1,–,8,16,–,8,–,–,16,16,–,8,8
O=C(NC[C@H]1CN(c2ccc(N3CCOCC3)c(F)c2)C(=O)O1)C1CCCS1 (some centres undefined),–,32,32,–,32,–,–,64,32,–,32,32
O=C(Cc1nnn[nH]1)NC[C@H]1CN(c2ccc(N3CCNCC3)c(F)c2)C(=O)O1,–,> 128,> 128,–,> 128,–,–,> 128,> 128,–,> 128,> 128
O=C(Cc1cccc2ccccc12)NC[C@H]1CN(c2ccc(N3CCOCC3)c(F)c2)C(=O)O1,–,32,> 128,–,64,–,–,> 128,> 128,–,> 128,> 128
O=C(NC[C@H]1CN(c2ccc(N3CCOCC3)c(F)c2)C(=O)O1)c1ccccc1,–,16,32,–,16,–,–,64,32,–,32,16

# — ChEMBL document CHEMBL5055653, “Synthesis, microbiological evaluation and structure activity relationship analysis of linezolid analogues with different C5-acylamino substituents” (2021)
